Results as given in ChEMBL document CHEMBL2346592, “Arylglycine derivatives as potent transient receptor potential melastatin 8 (TRPM8) antagonists” (Bioorg Med Chem Lett, 2013).

How the values were obtained:
[1] = biological target: Transient receptor potential M8 protein (Canis lupus familiaris, UniProt Q1A7N1); assay: Antagonist activity at dog TRPM8 expressed in HEK293 cells assessed as inhibition of icilin-induced calcium influx incubated for 5 mins prior to icilin induction measured after 5 mins by fluorescence assay; type: cell-based
Chain of Transient receptor potential M8 protein (Q1A7N1 whole entry): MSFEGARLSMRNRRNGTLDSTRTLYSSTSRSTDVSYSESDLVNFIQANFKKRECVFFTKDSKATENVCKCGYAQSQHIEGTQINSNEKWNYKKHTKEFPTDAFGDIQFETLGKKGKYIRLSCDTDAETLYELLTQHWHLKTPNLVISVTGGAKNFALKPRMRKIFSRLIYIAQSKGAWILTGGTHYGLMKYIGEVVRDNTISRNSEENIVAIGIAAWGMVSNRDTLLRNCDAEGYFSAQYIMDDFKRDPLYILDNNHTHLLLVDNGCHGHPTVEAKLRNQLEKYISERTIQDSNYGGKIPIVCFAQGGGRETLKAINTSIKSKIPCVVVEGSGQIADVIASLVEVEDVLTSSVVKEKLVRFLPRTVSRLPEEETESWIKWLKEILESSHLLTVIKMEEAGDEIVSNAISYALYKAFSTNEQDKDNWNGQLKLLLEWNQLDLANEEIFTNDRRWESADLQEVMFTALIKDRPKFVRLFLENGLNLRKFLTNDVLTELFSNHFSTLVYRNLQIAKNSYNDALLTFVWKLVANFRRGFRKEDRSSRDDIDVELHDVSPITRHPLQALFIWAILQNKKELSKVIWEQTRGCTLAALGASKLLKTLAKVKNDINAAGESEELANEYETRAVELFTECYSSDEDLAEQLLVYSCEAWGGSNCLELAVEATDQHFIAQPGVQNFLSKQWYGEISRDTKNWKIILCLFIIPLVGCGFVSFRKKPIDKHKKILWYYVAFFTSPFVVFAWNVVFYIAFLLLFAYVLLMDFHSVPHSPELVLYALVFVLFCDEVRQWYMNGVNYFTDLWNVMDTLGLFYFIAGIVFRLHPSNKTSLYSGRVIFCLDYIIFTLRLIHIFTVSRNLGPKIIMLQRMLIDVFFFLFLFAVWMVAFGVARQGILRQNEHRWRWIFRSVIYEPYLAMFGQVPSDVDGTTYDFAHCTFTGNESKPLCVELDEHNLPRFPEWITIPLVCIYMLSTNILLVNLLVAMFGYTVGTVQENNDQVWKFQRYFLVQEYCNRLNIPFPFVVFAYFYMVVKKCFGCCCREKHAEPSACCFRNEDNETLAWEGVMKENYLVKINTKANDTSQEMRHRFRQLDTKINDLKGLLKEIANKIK

Rattus norvegicus = assay: Anti-cold hypersensitive activity in rat assessed as inhibition of icilin-induced wet-dog shaking at 30 mg/kg, po measured for 10 mins relative to control; type: functional

Row | Compound | IC50 [1] | inhibition in vivo at 30 mg/kg (Rattus norvegicus)
1 | O=C(C(Nc1ccccc1F)c1ccc(C(F)(F)F)cc1)N1CCC[C@@H]1c1ccccc1 (stereo partly drawn) | 43 nM | 
2 | O=C(O)c1ccc(-c2ccc(C(Nc3ccccc3F)C(=O)N3CCC[C@H]3c3ccccc3F)cc2)cc1 (mixture of isomers) | 56 nM | 
3 | O=C(C(Nc1ccccc1F)c1ccc(-c2cccnc2)cc1)N1CCC[C@H]1c1ccccc1F (mixture of isomers) | 7 nM | -13%
4 | O=C(C(Nc1ccccc1F)c1ccc(Br)cc1)N1CCC[C@H]1c1ccccc1F (mixture of isomers) | 9 nM | 
5 | O=C(C(Nc1ccccc1F)c1cc2ccccc2s1)N1CCC[C@H]1c1ccccc1F (mixture of isomers) | 3 nM | 
6 | O=C(C(Nc1ccccc1F)c1ccc(C(F)(F)F)cc1)N1CCC[C@H]1c1ccccc1Cl (mixture of isomers) | 17 nM | 79%
7 | O=C(C(Nc1ccccc1F)c1ccc(C(F)(F)F)cc1)N1CCC[C@H]1c1ccccc1 (mixture of isomers) | 5 nM | 56%
8 | O=C(C(Nc1ccccc1)c1ccc(C(F)(F)F)cc1)N1CCC[C@@H]1c1ccccc1Cl (mixture of isomers) | 168 nM | 
9 | O=C(C(Nc1ccccc1)c1ccc(C(F)(F)F)cc1)N1CCC[C@H]1c1ccccc1Cl (mixture of isomers) | 41 nM | 
10 | O=C(C(Nc1ccccc1F)c1ccc(-c2ccncc2)cc1)N1CCCC1c1ccccc1F (racemic) | 25 nM | 
11 | O=C(O)c1ccc(C2CCCN2C(=O)C(Nc2ccccc2F)c2cc3ccccc3s2)cc1 (racemic) | 41 nM | 
12 | O=C(O)c1cccc(C2CCCN2C(=O)C(Nc2ccccc2F)c2ccc(C(F)(F)F)cc2)c1 (racemic) | 40 nM | 
13 | O=C(C(Nc1ccccc1F)c1ccc(C(F)(F)F)cc1)N1CCCC1c1ccccc1Cl (racemic) | 11 nM | 

More lines, main results first:

Row | IC50 [1] | Compound | inhibition in vivo at 30 mg/kg (Rattus norvegicus)
14 | 45 nM | O=C([C@H](Nc1ccccc1F)c1ccc(C(F)(F)F)cc1)N1CCC[C@H]1c1ccccc1F | 
15 | 6 nM | O=C([C@@H](Nc1ccccc1F)c1ccc(C(F)(F)F)cc1)N1CCC[C@H]1c1ccccc1F | 99%
16 | 44 nM | O=C(C(Nc1ccccc1F)c1ccc(C(F)(F)F)cc1)N1CCC[C@@H]1c1ccccc1F (mixture of isomers) | 
17 | 8 nM | O=C(C(Nc1ccccc1F)c1ccc(C(F)(F)F)cc1)N1CCC[C@H]1c1ccccc1F (mixture of isomers) | 63%
18 | 7 nM | O=C(C(Nc1ccccc1F)c1ccc(C(F)(F)F)cc1)N1CCCC1c1ccccc1F (racemic) | 
